Measured values from patent US8598183B2, “Solid state forms of a potent HCV inhibitor” (Boehringer Ingelheim International GmbH, priority 2010, dated 2013).
Marks after values point to notes of the source that are not given here.

Columns and labels:
Format in all cases: physicochemical
[1] = Solubility of Compound (1) in physiological pH range; thermodynamic solubility
Description: Doses of Compound (1) up to 400 to 600 mg per dose may be required to be delivered to obtain exposures necessary for sufficient efficacy in vivo. Based on thermodynamic solubility of Compound (1), solubility of 0.005-0.01 mg/ml is estimated for Compound (1) sodium salt.

[2] = Powder dissolution / solubility of Compound (1) sodium salt in water at different concentrations; details: for % dissolved / CMC value: water; for CMC value: estimated
Description: Based on thermodynamic solubility of Compound (1), solubility of 0.005-0.01 mg/ml is estimated for Compound (1) sodium salt. […] This unique behavior of high solubility at high drug concentrations is most likely attributable to tendency of the drug substance to self-micellize. A CMC value of 41.4 mM (corresponding to 28 mg/mL) is estimated.

[3] = Powder dissolution of triturated mixtures in capsules in 500 mL pH 6.8 buffer; details: capsule
Excerpt: One class of solubilizer excipients, basifiers, act by increasing the microenvironment pH and thereby increasing the local solubility of the drug (for a drug containing an acid moiety). Another class of solubilizer excipients, surfactants, also act by increasing the local solubility of the drug. […] For example, an enhancement in dissolution was obtained when surfactants, for example, sodium lauryl sulfate or Vitamin E TPGS, were used in combination with basifiers, for example, L-arginine, meglumine or L-lysine. […] For example, only 1% drug release was obtained when Compound (1) sodium salt crystalline was present. The % drug release was 54% at 60 minutes in the presence of 100 mg Arginine alone and 59% in the presence of Sodium lauryl sulfate alone (Table 2). However, in presence of 100 mg of Arginine along with 100 mg of Sodium lauryl sulfate, the % drug release increased to 93% at 60 minutes (Table 3) indicating enhancement in dissolution when both surfactant and basifier were used in combination.

For `Cn1c(C2(NC(=O)c3ccc4c(C5CCCC5)c(-c5ncc(Br)cn5)n(C)c4c3)CCC2)nc2ccc(/C=C/C(=O)[O-])cc21.[Na+]` [Compound (1) sodium salt], the “solubility estimated based on thermodynamic solubility of Compound (1)” value [1] was 5 to 10 µg/mL, the dissolution in water ([2]; concentrations exceeding the CMC value) was “dissolves completely” and the “% dissolved” value ([2]; conc 0.1 mg/ml) was 13.4%. For the same compound, the “% dissolved” value ([2]; conc 0.3 mg/ml) was 15.0%, the “% dissolved” value ([2]; conc 1.0 mg/ml) was 15.4% and the “% dissolved” value ([2]; conc 3.0 mg/ml) was 46.6%. The “% dissolved” value ([2]; conc 10.0 mg/ml) was 90.0%, the “% dissolved” value ([2]; conc 30.0 mg/ml) was 100.0% and the “% dissolved” value ([2]; conc 100.0 mg/ml) was 100.0%. The “% dissolved” value ([2]; conc 200.0 mg/ml) was 100.0%, the “% dissolved” value ([2]; concentrations ≦1 mg/mL) was 15% and the CMC value [2] was 41.4 mM. The CMC value ([2]; corresponding to the mM value) was 28 mg/mL, the “% Release, average (range)” value ([3]; 200 mg drug + Arginine 100 mg, 90 (infinity), n = 4) was 54 (40-58) % and the “% Release, average (range)” value ([3]; 200 mg drug + Arginine 100 mg, 15 min, n = 4) was 43 (27-53)* %. For the same compound, the “% Release, average (range)” value ([3]; 200 mg drug + Arginine 100 mg, 30 min, n = 4) was 54 (39-62) %, the “% Release, average (range)” value ([3]; 200 mg drug + Arginine 100 mg, 60 min, n = 4, listed as Compound (1) Na Salt) was 54 (38-60) % and the “% Release, average (range)” value ([3]; 200 mg drug + Arginine 100 mg, 60 min, n = 4, listed as Compound (1) sodium salt crystalline) was 54%. For the same compound, the “% Release, Average of n = 2 (range)” value ([3]; 200 mg drug + Arginine + SDS (40 mg + 20 mg), 15 min) was 74 (70-78) %, the “% Release, Average of n = 2 (range)” value ([3]; 200 mg drug + Arginine + SDS (40 mg + 20 mg), 30 min) was 77 (74-80) % and the “% Release, Average of n = 2 (range)” value ([3]; 200 mg drug + Arginine + SDS (40 mg + 20 mg), 60 min) was 76 (74-78) %. For the same compound, the “% Release, Average of n = 2 (range)” value ([3]; 200 mg drug + Arginine + SDS (40 mg + 20 mg), 90 min) was 72 (70-74) %, the “% Release, Average of n = 2 (range)” value ([3]; 200 mg drug + Arginine + SDS (100 mg + 100 mg), 15 min) was 92 (91-93) % and the “% Release, Average of n = 2 (range)” value ([3]; 200 mg drug + Arginine + SDS (100 mg + 100 mg), 30 min) was 93 (93-94) %. The “% Release, Average of n = 2 (range)” value ([3]; 200 mg drug + Arginine + SDS (100 mg + 100 mg), 60 min, listed as Compound (1) Na Salt) was 93 (93-93) %, the “% Release, Average of n = 2 (range)” value ([3]; 200 mg drug + Arginine + SDS (100 mg + 100 mg), 60 min, listed as Compound (1) sodium salt crystalline) was 93% and the “% Release, Average of n = 2 (range)” value ([3]; 200 mg drug + Arginine + SDS (100 mg + 100 mg), 90 min) was 91 (89-92) %. For the same compound, the “% Release, Average of n = 2 (range)” value ([3]; 200 mg drug + Arginine + VitE TPGS (40 mg + 20 mg), 15 min) was 62 (61-63) %, the “% Release, Average of n = 2 (range)” value ([3]; 200 mg drug + Arginine + VitE TPGS (40 mg + 20 mg), 30 min) was 64 (62-67) % and the “% Release, Average of n = 2 (range)” value ([3]; 200 mg drug + Arginine + VitE TPGS (40 mg + 20 mg), 60 min) was 65 (63-68) %. For the same compound, the “% Release, Average of n = 2 (range)” value ([3]; 200 mg drug + Arginine + VitE TPGS (40 mg + 20 mg), 90 min) was 63 (60-66) %, the “% Release, Average of n = 2 (range)” value ([3]; 200 mg drug + Arginine + VitE TPGS (100 mg + 100 mg), 15 min) was 76 (74-78) % and the “% Release, Average of n = 2 (range)” value ([3]; 200 mg drug + Arginine + VitE TPGS (100 mg + 100 mg), 30 min) was 77 (76-78) %. For the same compound, the “% Release, Average of n = 2 (range)” value ([3]; 200 mg drug + Arginine + VitE TPGS (100 mg + 100 mg), 60 min) was 78 (78-78) %, the “% Release, Average of n = 2 (range)” value ([3]; 200 mg drug + Arginine + VitE TPGS (100 mg + 100 mg), 90 min) was 76 (75-76) % and the “% Release, average (range)” value ([3]; 200 mg drug + Lysine 100 mg, 90 (infinity), n = 4) was 44 (33-46) %. For the same compound, the “% Release, average (range)” value ([3]; 200 mg drug + Lysine 100 mg, 15 min, n = 4) was 18 (9-27) %, the “% Release, average (range)” value ([3]; 200 mg drug + Lysine 100 mg, 60 min, n = 4) was 47 (33-54) % and the “% Release, Average of n = 2 (range)” value ([3]; 200 mg drug + Lysine + SDS (40 mg + 20 mg), 15 min) was 75 (74-77) %. The “% Release, Average of n = 2 (range)” value ([3]; 200 mg drug + Lysine + SDS (40 mg + 20 mg), 30 min) was 77 (76-78) %, the “% Release, Average of n = 2 (range)” value ([3]; 200 mg drug + Lysine + SDS (40 mg + 20 mg), 60 min) was 75 (74-75) % and the “% Release, Average of n = 2 (range)” value ([3]; 200 mg drug + Lysine + SDS (40 mg + 20 mg), 90 min) was 72 (70-74) %. For the same compound, the “% Release, Average of n = 2 (range)” value ([3]; 200 mg drug + Lysine + SDS (100 mg + 100 mg), 15 min) was 40 (37-42) %, the “% Release, Average of n = 2 (range)” value ([3]; 200 mg drug + Lysine + SDS (100 mg + 100 mg), 30 min) was 74 (67-82) % and the “% Release, Average of n = 2 (range)” value ([3]; 200 mg drug + Lysine + SDS (100 mg + 100 mg), 60 min) was 85 (85-86) %. For the same compound, the “% Release, Average of n = 2 (range)” value ([3]; 200 mg drug + Lysine + SDS (100 mg + 100 mg), 90 min) was 85 (84-85) %, the “% Release, Average of n = 2 (range)” value ([3]; 200 mg drug + Lysine + VitE TPGS (40 mg + 20 mg), 15 min) was 37 (33-41) % and the “% Release, Average of n = 2 (range)” value ([3]; 200 mg drug + Lysine + VitE TPGS (40 mg + 20 mg), 30 min) was 69 (69-70) %. The “% Release, Average of n = 2 (range)” value ([3]; 200 mg drug + Lysine + VitE TPGS (40 mg + 20 mg), 60 min) was 71 (70-72) %.
